From US20200087258A1, “INHIBITOR OF CITRATE TRANSPORTER AND THEIR USE IN THERAPY” (Eternygen GmbH, priority 2017, published 2020)

Target: INDY (Homo sapiens, UniProt Q86YT5)
Assay: 14C-citrate uptake in HEK293 cells overexpressing recombinant human INDY (NaCT)
Assay type: cell-based
Set-up: expressed in transfected cells; host or cells: HEK293
Experimental: The compound was obtained by screening of a library containing more than 50,000 lead-like compounds and fragments. The library was tested using a functional citrate uptake assay with HEK293 cells overexpressing recombinant human INDY. The following hit confirmation was conducted in the same assay system. To confirm the activity of selected compounds on the target INDY another cell assay was conducted. In this assay system citrate uptake was measured using HepG2 cells which endogenously express INDY. Furthermore selectivity of selected compounds was tested for two other transporters in different assay systems. The first transporter was the glutamate transporter GLT-1 tested in a glutamate uptake assays using HEK293 cells overexpressing recombinant human GLT-1. The second transporter was the glucose transporter GLUT1 tested in a glucose uptake assay using Huh-7 cells which endogenously express GLUT1. Compounds were considered to be selective with an at least 5-fold higher activity for INDY than for the other two transporters.
Cells were maintained in cell medium using cell culture grade flasks (CellSTACK Corning, 500 cm2 dishes or T175 depending on cell number). The selection antibiotic and G418 (800 μg/ml) was added during cultivation but not for seeding into assay plates. For splitting, cells were washed with PBS (w/o Ca2+, Mg2+, phenol red) and detached with Trypsin/EDTA. Throughout cultivation cells were kept sub-confluent. Detached cells (50,000 cells/well) were seeded in 96-well plates (white, clear bottom from Corning #655098) and incubated over night before usage in the assay. The following media were used. For HEK293 cells expressing INDY MEM (PAA)+10% FCS+1×P/S+2 mM L-Gln; for HEK293 cells expressing GLT-1 DMEM (Gibco)+10% FCS+400 µg/ml G418; for Huh7 cells DMEM (Gibco)+10% FCS+2 mM L-Gin (+1×P/S); for HepG2 cells MEM (PAA, Cat # E15-024)+10% FCS+2 mM L-Gin+1×NEAA+1 mM Na-Pyruvat
The following assay buffers for the particular uptake reaction were used. Citrate uptake buffer: 120 mM NaCl, 5.4 mM KCl, 0.8 mM MgSO4, 5 mM glucose, 1.8 mM CaCl2, 25 mM Hepes, 25 mM MES, pH 6.5. Glutamate uptake buffer: HBSS, 1 mM CaCl2, 1 mM MgCl2, 20 mM Hepes pH 7.4. Glucose uptake buffer: 25 mM Hepes+25 mM MES pH 7.4, 120 mM NaCl, 5.4 mM KCl, 1.8 mM CaCl2, 0.8 mM MgSO4.
INDY mediated citrate uptake was determined in HEK293 cells. To determine the uptake of ^14C labelled citrate into cells, HEK293 cells over-expressing human NaCT were used. Cloning of human NaCT was done in analogy as described in Birkenfeld et al. (Birkenfeld et al., 2011, Cell Metabolism 14, 184-195, 2011).
Human NaCT HEK293 cells were seeded into white clear-bottom 96-well plates (50,000/well) in the presence of 4 μg/ml Poly-D-Lysine and incubated at 37° C. for 16-24 hours. On the days of the assay the plates were washed once with assay buffer using automated washing/LS 405 Selectors, BioTek ending with a buffer volume of 40 μl. Then 5 μl of compound solution in assay buffer was added and incubated for 5-30 min at 37° C. in cell incubator, HERA cell Heraeus. Afterwards 10 μl of substrate 14C-citrate ([…]/[…] per well) were added and incubated for another 20-90 min at 37° C. in cell incubator, HERAcell. Then plates were washed twice with 200 μl ice-cold assay buffer and residual volume was discarded. For cell lysis 50 μl ice-cold NaOH (100 mM) was added and incubated for 15 minutes at RT on a plate shaker. Finally, 200 μl scintillation fluid (scintillator OptiPhase Supermix, Perkin Elmer) was added. After 15 min incubation at RT without shaking, plates were measured using a TopCount reader system (Perkin Elmer). As a positive control 10 mM citrate was applied. It is possible to use this assay also in analogy in a 384-well plate format.

Chain of INDY (Q86YT5 whole entry): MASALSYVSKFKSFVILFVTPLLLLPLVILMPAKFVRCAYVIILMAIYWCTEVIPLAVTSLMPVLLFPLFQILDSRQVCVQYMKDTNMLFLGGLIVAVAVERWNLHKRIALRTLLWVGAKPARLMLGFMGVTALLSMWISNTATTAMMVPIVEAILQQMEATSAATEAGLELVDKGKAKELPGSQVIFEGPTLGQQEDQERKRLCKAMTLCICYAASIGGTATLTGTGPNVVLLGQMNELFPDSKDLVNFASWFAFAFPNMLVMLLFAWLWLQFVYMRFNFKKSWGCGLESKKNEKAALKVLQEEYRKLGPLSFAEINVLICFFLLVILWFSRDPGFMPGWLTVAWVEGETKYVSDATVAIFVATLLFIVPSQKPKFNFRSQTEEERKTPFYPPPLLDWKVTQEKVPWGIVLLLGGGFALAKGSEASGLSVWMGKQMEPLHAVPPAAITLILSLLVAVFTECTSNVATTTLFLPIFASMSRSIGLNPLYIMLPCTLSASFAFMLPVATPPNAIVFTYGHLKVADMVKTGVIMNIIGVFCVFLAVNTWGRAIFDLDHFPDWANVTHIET

| SMILES | IC50 [µM] |
| --- | --- |
| N#Cc1ccc(S(=O)(=O)N2CCC(C(=O)NCc3ccccc3F)CC2)cc1 [Example 13, 1-(4-cyanobenzenesulfonyl)-N-[(2-fluorophenyl)methyl]piperidine-4-carboxamide] | 20.6 |
| O=C(NCc1ccc2[nH]cnc2c1)C1CCN(S(=O)(=O)/C=C/c2ccccc2)CC1 [Example 14, N-[(1H-1,3-benzodiazol-5-yl)methyl]-1-[(E)-2-phenylethenesulfonyl]piperidine-4-carboxamide] | > 20 |
| O=C(NCc1ccccc1F)C1CCN(S(=O)(=O)c2ccc([N+](=O)[O-])cc2)CC1 [Example 17, N-[(2-fluorophenyl)methyl]-1-(4-nitrobenzenesulfonyl)piperidine-4-carboxamide] | > 20 |
| CS(=O)(=O)c1ccccc1CNC(=O)C1CCN(S(=O)(=O)/C=C/c2ccccc2)CC1 [Example 18, N-[(2-methanesulfonylphenyl)methyl]-1-[(E)-2-phenylethenesulfonyl]piperidine-4-carboxamide] | > 20 |
| CC(=O)Nc1ccc(S(=O)(=O)N2CCC(C(=O)NCc3ccccc3F)CC2)cc1 [Example 20, 1-(4-acetamidobenzenesulfonyl)-N-[(2-fluorophenyl)methyl]piperidine-4-carboxamide] | > 20 |
| Cc1ccccc1CNC(=O)C1CCN(S(=O)(=O)/C=C/c2ccccc2)CC1 [Example 31, N-[(2-methylphenyl)methyl]-1-[(E)-2-phenylethenesulfonyl]piperidine-4-carboxamide] | 15.2 |
| O=C(NCc1ccccc1F)C1CCN(S(=O)(=O)c2ccc(F)cc2)CC1 [Example 45, 1-(4-fluorobenzenesulfonyl)-N-[(2-fluorophenyl)methyl]piperidine-4-carboxamide] | 11.8 |
| COc1ccc(CNC(=O)C2CCN(S(=O)(=O)/C=C/c3ccccc3)CC2)c(F)c1 [Example 48, N-[(2-fluoro-4-methoxyphenyl)methyl]-1-[(E)-2-phenylethenesulfonyl]piperidine-4-carboxamide] | > 20 |
| CC(C)(C)c1ccc(S(=O)(=O)N2CC(C(=O)NCc3ccccn3)C2)cc1 [Example 51, 1-(4-tert-butylbenzenesulfonyl)-N-[(pyridin-2-yl)methyl]azetidine-3-carboxamide] | 14.4 |
| CC(C)Oc1ccccc1CNC(=O)C1CCN(S(=O)(=O)/C=C/c2ccccc2)CC1 [Example 54, 1-[(E)-2-phenylethenesulfonyl]-N-{[2-(propan-2-yloxy)phenyl]methyl}piperidine-4-carboxamide] | > 20 |
| O=C(NCc1ccccn1)C1CCN(S(=O)(=O)c2c(Cl)cccc2Cl)CC1 [Example 63, 1-(2,6-dichlorobenzenesulfonyl)-N-[(pyridin-2-yl)methyl]piperidine-4-carboxamide] | > 20 |
| CN(C)c1ccc(S(=O)(=O)N2CCC(C(=O)NCc3ccccn3)CC2)cc1 [Example 64, 1-[4-(dimethylamino)benzenesulfonyl]-N-[(pyridin-2-yl)methyl]piperidine-4-carboxamide] | > 20 |
| O=C(NCc1ccccn1)C1CCN(S(=O)(=O)c2ccc(-c3ccccc3)cc2)CC1 [Example 68, 1-{[1,1′-biphenyl]-4-sulfonyl}-N-[(pyridin-2-yl)methyl]pipendine-4-carboxamide] | 19.7 |
| O=C(NCc1ccccc1F)C1CCN(S(=O)(=O)c2ccc(O)cc2)CC1 [Example 72, N-[(2-fluorophenyl)methyl]-1-(4-hydroxybenzenesulfonyl)pipendine-4-carboxamide] | > 20 |
| O=C(NCc1ccccn1)C1CCN(S(=O)(=O)c2cccc([N+](=O)[O-])c2)CC1 [Example 76, 1-(3-nitrobenzenesulfonyl)-N-[(pyridin-2-yl)methyl]pipendine-4-carboxamide] | > 20 |
| NC(=O)c1ccc(S(=O)(=O)N2CCC(C(=O)NCc3ccccc3F)CC2)cc1 [Example 77, 1-(4-carbamoylbenzenesulfonyl)-N-[(2-fluorophenyl)methyl]pipendine-4-carboxamide] | > 20 |
| NC(=O)c1ccccc1CNC(=O)C1CCN(S(=O)(=O)c2cc(Cl)cc(Cl)c2)CC1 [Example 80, N-[(2-carbamoylphenyl)methyl]-1-(3,5-dichlorobenzenesulfonyl)pipendine-4-carboxamide] | > 20 |
| O=C(NCc1ccccn1)C1CCN(S(=O)(=O)c2cccc(Cl)c2Cl)CC1 [Example 83, 1-(2,3-dichlorobenzenesulfonyl)-N-[(pyridin-2-yl)methyl]pipendine-4-carboxamide] | > 20 |
| COC(=O)c1cccc(S(=O)(=O)N2CCC(C(=O)NCc3ccccc3F)CC2)c1 [Example 88, methyl 3-[(4-{[(2-fluorophenyl)methyl]carbamoyl}piperidin-1-yl)sulfonyl]benzoate] | > 20 |

Second part, the compound after the results:

| IC50 [µM] | SMILES |
| --- | --- |
| > 20 | O=C(NCc1ccccc1C(F)(F)F)C1CCN(S(=O)(=O)/C=C/c2ccccc2)CC1 [Example 11, 1-[(E)-2-phenylethenesulfonyl]-N-{[2-(trifluoromethyl)phenyl]methyl}piperidine-4-carboxamide] |
| > 20 | O=C(NCc1ccccc1N1CCOCC1)C1CCN(S(=O)(=O)/C=C/c2ccccc2)CC1 [Example 40, N-{[2-(morpholin-4-yl)phenyl]methyl}-1-[(E)-2-phenylethenesulfonyl]piperidine-4-carboxamide] |
| > 20 | CC(C)(C)c1ccccc1S(=O)(=O)N1CCC(C(=O)NCc2ccccc2F)CC1 [Example 42, 1-(2-tert-butylbenzenesulfonyl)-N-[(2-fluorophenyl)methyl]piperidine-4-carboxamide] |
| > 20 | O=C(NCc1ccccc1F)C1CN(S(=O)(=O)c2ccc(C(F)(F)F)cc2)C1 [Example 52, N-[(2-fluorophenyl)methyl]-1-[4-(trifluoromethyl)benzenesulfonyl]azetidine-3-carboxamide] |
| 15.9 | N#Cc1ccccc1CNC(=O)C1CCN(S(=O)(=O)/C=C/c2ccccc2)CC1 [Example 53, N-[(2-cyanophenyl)methyl]-1-[(E)-2-phenylethenesulfonyl]piperidine-4-carboxamide] |
| > 20 | O=C(NCc1ccc(F)cc1)C1CCN(S(=O)(=O)/C=C/c2ccccc2)CC1 [Example 56, N-[(4-fluorophenyl)methyl]-1-[(E)-2-phenylethenesulfonyl]piperidine-4-carboxamide] |
| > 20 | COc1ccc(S(=O)(=O)N2CCC(C(=O)NCc3ccccn3)CC2)c(OC)c1 [Example 61, 1-(2,4-dimethoxybenzenesulfonyl)-N-[(pyridin-2-yl)methyl]piperidine-4-carboxamide] |
| > 20 | CN(C)c1ccc(S(=O)(=O)N2CCC(C(=O)NCc3ccccc3F)CC2)cc1 [Example 65, 1-[4-(dimethylamino)benzenesulfonyl]-N-[(2-fluorophenyl)methyl]piperidine-4-carboxamide] |
| 12.9 | COC(=O)c1ccccc1CNC(=O)C1CCN(S(=O)(=O)/C=C/c2ccccc2)CC1 [Example 66, methyl 2-[({1-[(E)-2-phenylethenesulfonyl]piperidin-4-yl}formamido)methyl]benzoate] |
| > 20 | O=C(NCc1ccccn1)C1CCN(S(=O)(=O)c2ccc(N3CCCC3)cc2)CC1 [Example 70, N-[(pyridin-2-yl)methyl]-1-[4-(pyrrolidin-1-yl)benzenesulfonyl]pipendine-4-carboxamide] |
| 14.4 | O=C(NCc1ccccn1)C1CCN(S(=O)(=O)c2ccccc2Cl)CC1 [Example 71, 1-(2-chlorobenzenesulfonyl)-N-[(pyridin-2-yl)methyl]pipendine-4-carboxamide] |
